Measurements taken from patent US20240262795A1, “PYRAZINE COMPOUNDS AS INHIBITORS OF FLT3” (Biomea Fusion, Inc., priority 2021, published 2024).

Assays:
Format in all cases: cell-based, human
MOLM-13 = test: Proliferation inhibition, CellTiter-Glo, MOLM-13; conditions: Homo sapiens, 96 h; MOLM-13 cells, IC50 (4 days), CellTiter-Glo; read-out: MOLM-13 IC50
Text: (§1) The proliferation inhibitory effect was investigated in human AML cell lines MOLM-13 (AddexBio: C0003003) and MV-4-11 (ATCC: CRL-9591), and CML cell line […] (ATCC: CRL-3343). Molm-13 is heterozygous for FLT3-ITD mutation, while MV4-11 is homozygous for FLT3-ITD (Quentmeier H, et al., Leukemia. 17(1):120-4). […] Cells were maintained in RPMI-1640 medium (ThermoFisher catalog no. 61870036) supplemented with 10% of Heat Inactivated FBS (ThermoFisher catalog no. A31605) and 1% Pen-Strep (ThermoFisher catalog no. 10378016) and cultured at 37° C. in a humidified incubator with 5% CO2. Cell lines were grown by […], and the cells were maintained in a range 70%-80% confluency.
(§2) ATP is present in all metabolically active cells and is considered as a marker for cell viability and proliferation. Metabolic cell activity was determined using the CellTiter-Glo kit (Promega catalog no. G7572), an ATP monitoring system based on the production of luminescence by the reaction of ATP with added UltraGlo® recombinant luciferase (Kawano et al., 2016, PLOS One, 8; 11(7):e0158888), according to the supplier's experimental recommendations. The assay was based on a 96 well plate format.
(§3) Test compounds were dissolved at 10 mM in DMSO (Sigma catalog no. D8418; purity≥99.9%) and stored at −20° C. Eight concentrations of test compound were assessed in duplicate in an individual test occasion in parallel in the selected cell lines. Gilteratinib and FF-10101 were used as reference compounds and tested in duplicate at eight concentrations. 100% of proliferation is represented by the untreated cells (0.2% DMSO).
(§4) On the day of the experiment, cells were quantified with the cell viability analyzer NucleoCounter (Chemometec NC-200) and diluted with fresh medium to obtain the cell density of about 10,000 cells per 200 μL medium. 200 μL of cell suspension were added into wells in the 96 well plate.
(§5) After 2 hours from seeding cells, compounds at desired concentrations were added using a D300e compound dispenser (Life Sciences Tecan D300) with shaking between each compound dispensed. Assay plates were incubated at 37° C. in a humidified incubator with 5% CO2.
(§6) On day 4 (˜96 hrs after compound addition) assay plates were equilibrated at room temperature for approximately 15 min, and then 40 μL/well of the Promega CellTiterGlo® reagent was added. Contents were mixed for 5 min on an orbital shaker to promote cell lysis, and then incubated at room temperature for an additional 10 min in the dark to stabilize the luminescent signal. Luminescence was read by using a GloMlax GM300 plate reader (Promega) using the luminescence for 96 well plate standard protocol.
(§7) Results were analyzed by GraphPad (Prism) and IC50 values were calculated by non-linear regression using four parameter-logistic equation.

K-562 = test: Proliferation inhibition, CellTiter-Glo, K-562; conditions: Homo sapiens, K562, 96 h; K-562 cells, IC50 (4 days), CellTiter-Glo; read-out: K-562 IC50
Text: as §1, §2, §3, §4, §5, §6, §7

MV-4-11 = test: Proliferation inhibition, CellTiter-Glo, MV-4-11; conditions: Homo sapiens, MV4-11, 96 h; MV-4:11 cells, IC50 (4 days), CellTiter-Glo; read-out: MV-4:11 IC50
Text: as §1, §2, §3, §4, §5, §6, §7

SMILES | IC50 (MOLM-13) | IC50 (K-562) | IC50 (MV-4-11)
CCc1nc(C(N)=O)c(Nc2cccc(CCNC(=O)[C@H](C)N(C)C(=O)/C=C/CNC)c2)nc1C1CC1 [Compound 224, (S,E)-5-cyclopropyl-6-ethyl-3-((3-(2-(2-(N-methyl-4-(methylamino)but-2-enamido)propanamido)ethyl)phenyl)amino)pyrazine-2-carboxamide] | 1 to 10 nM | > 500 nM | < 1 nM
C=CC(=O)N(C)[C@@H](C)C(=O)NCCc1cccc(Nc2nc(N(C)CC)c(C)nc2C(N)=O)c1 [Compound 225, 5-[ethyl(methyl)amino]-6-methyl-3-[3-[2-[[(2S)-2-[methyl(prop-2-enoyl)amino]propanoyl]amino]ethyl]anilino]pyrazine-2-carboxamide] | 10 to 100 nM | > 500 nM | 1 to 10 nM
CCc1nc(C(N)=O)c(Nc2cccc(CCNC(=O)CN(C)C(=O)/C=C/CN(C)C)c2)nc1C [Compound 226, (E)-3-((3-(2-(2-(4-(dimethylamino)-N-methylbut-2-enamido)acetamido)ethyl)phenyl)amino)-6-ethyl-5-methylpyrazine-2-carboxamide] | 1 to 10 nM | > 500 nM | < 1 nM
CCc1nc(C(N)=O)c(Nc2cccc(CCNC(=O)[C@H](C)N(C)C(=O)/C=C/CNC)c2)nc1C [Compound 227, (S,E)-6-ethyl-5-methyl-3-((3-(2-(2-(N-methyl-4-(methylamino)but-2-enamido)propanamido)ethyl)phenyl)amino)pyrazine-2-carboxamide] | 1 to 10 nM | > 500 nM | 1 to 10 nM
Cc1nc(C(N)=O)c(Nc2cccc(CCNC(=O)[C@H](C)N(C)C(=O)/C=C/CN(C)C)c2)nc1C1CC1 [Compound 228, (S,E)-5-cyclopropyl-3-((3-(2-(2-(4-(dimethylamino)-N-methylbut-2-enamido)propanamido)ethyl)phenyl)amino)-6-methylpyrazine-2-carboxamide] | 1 to 10 nM | > 500 nM | 1 to 10 nM
Cc1nc(C(N)=O)c(Nc2cccc(CCNC(=O)[C@H](C)N(C)C(=O)/C=C/CN3CCC3)c2)nc1N(C)C [Compound 230, (S,E)-3-((3-(2-(2-(4-(azetidin-1-yl)-N-methylbut-2-enamido)propanamido)ethyl)phenyl)amino)-5-(dimethylamino)-6-methylpyrazine-2-carboxamide] | 1 to 10 nM | > 500 nM | < 1 nM
C=CC(=O)N(C)[C@@H](C)C(=O)NCCc1cccc(Nc2nc(N(C)C(C)C)c(C)nc2C(N)=O)c1 [Compound 231, 5-[isopropyl(methyl)amino]-6-methyl-3-[3-[2-[[(2S)-2-[methyl(prop-2-enoyl)amino]propanoyl]amino]ethyl]anilino]pyrazine-2-carboxamide] | 10 to 100 nM | > 500 nM | 1 to 10 nM
Cc1nc(C(N)=O)c(Nc2cccc(CCNC(=O)[C@H](C)N(C)C(=O)/C=C/CN(C)C)c2)nc1N(C)C [Compound 233, (S,E)-5-(dimethylamino)-3-((3-(2-(2-(4-(dimethylamino)-N-methylbut-2-enamido)propanamido)ethyl)phenyl)amino)-6-methylpyrazine-2-carboxamide] | 1 to 10 nM | > 500 nM | < 1 nM
CCc1nc(C(N)=O)c(Nc2cccc(CCNC(=O)[C@@H](C)N(C)C(=O)/C=C/CN(C)C)c2)nc1C [Compound 234, 3-[3-[2-[[(2R)-2-[[(E)-4-(dimethylamino)but-2-enoyl]-methyl-amino]propanoyl]amino]ethyl]anilino]-6-ethyl-5-methyl-pyrazine-2-carboxamide] | > 500 nM | > 500 nM | 10 to 100 nM
C=CC(=O)N(C)[C@H](C)C(=O)NCCc1cccc(Nc2nc(C3CC3)c(CC)nc2C(N)=O)c1 [Compound 236, 5-cyclopropyl-6-ethyl-3-[3-[2-[[(2R)-2-[methyl(prop-2-enoyl)amino]propanoyl]amino]ethyl]anilino]pyrazine-2-carboxamide] | 10 to 100 nM | > 500 nM | 10 to 100 nM
[2H]C([2H])([2H])N(C(=O)C=C)[C@@H](C)C(=O)NCCc1cccc(Nc2nc(C3CC3)c(CC)nc2C(N)=O)c1 [Compound 237, 5-cyclopropyl-6-ethyl-3-[3-[2-[[(2S)-2-[prop-2-enoyl(trideuteriomethyl)amino]propanoyl]amino]ethyl]anilino]pyrazine-2-carboxamide] | 10 to 100 nM | > 500 nM | 1 to 10 nM
C=CC(=O)N(C)[C@@H](C)C(=O)NCCc1cccc(Nc2nc(C)c(C)nc2C(N)=O)c1 [Compound 238, 5,6-dimethyl-3-[3-[2-[[(2S)-2-[methyl(prop-2-enoyl)amino]propanoyl]amino]ethyl]anilino]pyrazine-2-carboxamide] | > 500 nM | > 500 nM | > 500 nM
CCc1nc(C(N)=O)c(Nc2cccc(CCNC(=O)[C@H](C)N(C)C(=O)/C=C/CN3CC(F)C3)c2)nc1C [Compound 240, 6-ethyl-3-[3-[2-[[(2S)-2-[[(E)-4-(3-fluoroazetidin-1-yl)but-2-enoyl]-methyl-amino]propanoyl]amino]ethyl]anilino]-5-methyl-pyrazine-2-carboxamide] | > 500 nM | > 500 nM | 10 to 100 nM
Cc1nc(C(N)=O)c(Nc2cccc(CCNC(=O)[C@H](C)N(C)C(=O)/C=C/CN3CCC3)c2)nc1C1CC1 [Compound 242, (S,E)-3-((3-(2-(2-(4-(azetidin-1-yl)-N-methylbut-2-enamido)propanamido)ethyl)phenyl)amino)-5-cyclopropyl-6-methylpyrazine-2-carboxamide] | 1 to 10 nM | > 500 nM | 1 to 10 nM
CCc1nc(Nc2cccc(CCNC(=O)[C@H](C)N(C)C(=O)/C=C/CN(C)C)c2)c(C(N)=O)nc1CC [Compound 243, (S,E)-3-((3-(2-(2-(4-(dimethylamino)-N-methylbut-2-enamido)propanamido)ethyl)phenyl)amino)-5,6-diethylpyrazine-2-carboxamide] | 1 to 10 nM | > 500 nM | < 1 nM
CCc1nc(C(N)=O)c(Nc2cccc(CCNC(=O)[C@H](C)N(C)C(=O)C#CCN(C)C)c2)nc1C [Compound 244, (S)-3-((3-(2-(2-(4-(dimethylamino)-N-methylbut-2-ynamido)propanamido)ethyl)phenyl)amino)-6-ethyl-5-methylpyrazine-2-carboxamide] | 1 to 10 nM | > 500 nM | < 1 nM
Cc1nc(Nc2cc(F)cc(CCNC(=O)[C@H](C)N(C)C(=O)/C=C/CN(C)C)c2)c(C(N)=O)nc1C [Compound 245, 3-[3-[2-[[(2S)-2-[[(E)-4-(dimethylamino)but-2-enoyl]-methyl-amino]propanoyl]amino]ethyl]-5-fluoro-anilino]-5,6-dimethyl-pyrazine-2-carboxamide] | 10 to 100 nM | > 500 nM | 1 to 10 nM
[2H]C([2H])([2H])N(C/C=C/C(=O)N(C)[C@@H](C)C(=O)NCCc1cccc(Nc2nc(N(C)CC)c(CC)nc2C(N)=O)c1)C([2H])([2H])[2H] [Compound 246, (S,E)-3-((3-(2-(2-(4-(bis(methyl-d3)amino)-N-methylbut-2-enamido)propanamido)ethyl)phenyl)amino)-6-ethyl-5-(ethyl(methyl)amino)pyrazine-2-carboxamide] | < 1 nM | > 500 nM | < 1 nM
